From patent publication US11564959B2 (SHISEIDO COMPANY, LTD., priority 2016, dated 2023)
Where a name gives a salt, the structure may show the parent alone.

Legend:
laminin 511 [1] = settings: CGS27023A 10 μM and BIPBIPU 10 μM added together, 4 days of culturing, abdominal skin
Protocol: The taken samples were cultured for 4 days in culture medium containing the MMP9 inhibiting agent CGS270234 (10 μM) and the heparanase inhibiting agent BIPBIU (10 μM).

PDGF-BB = experiment: Membrane array of cytokines in epidermis protein extract of three-dimensional skin model; assay type: cell-based; settings: CGS27023A 10^−5 M and BIPBIPU 10^−5 M added together, 2nd, 4th and 7th day, data not shown
From the text: The epidermis was collected from the skin model on the 2nd day, 4th day and 7th day of culturing, and RIPA buffer by Nacalai was used to prepare a protein extract. Using a membrane array kit (ab134002) by Abcam Co., the amounts of different cytokines in the protein extract were detected using a LAS-1000UVmini by Fujifilm and digitized with the included software, and a graph was drawn (data not shown). The cytokines whose amounts increased compared to the control were selected as candidate cytokines that promote type V collagen expression. Three cytokines including PDGF-BB were selected as candidate cytokines.

MCSP-positive cells [2] = experiment: Tissue culture of human skin with MMP and heparanase inhibiting agents, MCSP staining; assay type: cell-based; settings: CGS27023A 10 μM and BIPBIPU 10 μM added together, 4 days of culturing, abdominal skin
From the text: DAPI was also used for nuclear staining. […] DAPI was also used for nuclear staining.

laminin 511 [3] = experiment: Ex vivo human skin organ culturing with HEI, laminin 511 staining; settings: 0.01% HEI, 5 days, abdominal skin
MCSP-positive cells [4] = experiment: Ex vivo human skin organ culturing with HEI, MCSP staining; assay type: cell-based; settings: 0.01% HEI, 5 days, abdominal skin
heparanase = target: T1, heparanase (Homo sapiens, UniProt Q9Y251); experiment: Heparanase assay on heparan sulfate immobilization plate with A431 cell lysate; assay type: biochemical; settings: 0.0005%, 0.005% or 0.05% HEI, 3 hours at 37° C., FIG. 8
T1 construct: endogenous in cells; host or cells: A431 cell lysate
T1 sequence (Q9Y251 158-543 limits assumed): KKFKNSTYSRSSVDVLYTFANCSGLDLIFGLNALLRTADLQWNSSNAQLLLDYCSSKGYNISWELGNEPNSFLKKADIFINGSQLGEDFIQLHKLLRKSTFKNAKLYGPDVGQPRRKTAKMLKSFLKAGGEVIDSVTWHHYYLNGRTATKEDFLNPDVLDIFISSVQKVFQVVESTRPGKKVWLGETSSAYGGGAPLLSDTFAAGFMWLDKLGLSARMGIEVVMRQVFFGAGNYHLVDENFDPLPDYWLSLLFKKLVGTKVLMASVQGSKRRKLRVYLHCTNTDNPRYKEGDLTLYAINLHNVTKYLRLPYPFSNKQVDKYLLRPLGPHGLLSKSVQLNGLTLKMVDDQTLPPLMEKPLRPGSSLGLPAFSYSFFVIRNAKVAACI
T1 sequence (Q9Y251 36-109 limits assumed): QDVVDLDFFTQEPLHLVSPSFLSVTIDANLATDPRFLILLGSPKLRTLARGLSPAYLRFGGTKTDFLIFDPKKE
Protocol: A heparanase assay was carried out using a heparan sulfate immobilization plate, as described in Behzad F, et al., Analytical Biochemistry, 320, pp. 207-213, 2003. Specifically, heparan sulfate (Seikagaku, Tokyo, Japan) was reacted with photobiotin to prepare biotinylated heparan sulfate. The biotinylated heparan sulfate was fixed onto a carbohydrate-binding surface plate (Coastar, Tokyo, Japan). A431 cell lysate (50 μg/ml) and 0% HEI, 0.0005% HEI, 0.005% HEI or 0.05% HEI were added onto the biotinylated heparan sulfate immobilized plate, incubated for 3 hours at 37° C., and then rinsed with PBS-T. Next, peroxidase-avidin (Vector Laboratories, Inc. CA, USA) was incubated at 37° C. for 1 hour. A 3,3′,5,5′-tetramethylbenzidine (TMB) solution (Bio-Rad, Tokyo, Japan) was added, and the plate was further incubated at room temperature for 30 minutes. The absorbance at 450 nm was measured to determine the heparanase inhibiting effect.

human skin = experiment: Ex vivo human skin organ culturing with HEI, TEWL and stratum corneum moisture; assay type: cell-based; settings: 0.01% HEI, 5 days
Protocol: (§1) The taken samples were cultured for 5 days in culture medium containing 0.01% HEI. […] The excess moisture adhering to the cultured skin sample was wiped off with a Kimtowel, and after allowing it to stand for 5 minutes, a Vapometer was used for TEWL measurement, and a Corneometer was used to measure the stratum corneum moisture content.

filaggrin = experiment: Ex vivo human skin organ culturing with HEI, filaggrin staining; assay type: cell-based; settings: 0.01% HEI, 5 days
Protocol: as §1
DAPI was also used for nuclear staining.

[5] = In vivo human application test of HEI solution on the face, TEWL and stratum corneum moisture; settings: 1.5% HEI solution on one side of the face, twice a day for 4 weeks, water on other side
Protocol: Next, 20 males from 20 to 50 years of age were asked to apply a 1.5% HEI solution on one side of the face and water on the other side of the face, twice a day for 4 weeks. Before application, 2 weeks after application and 4 weeks after application, the TEWL was measured using a Vapometer, and a Corneometer was used to measure the stratum corneum moisture content.

recombinant human MMP-9 = target: T2, recombinant human MMP-9 (Homo sapiens, UniProt P14780); experiment: MMP-9 colorimetric drug discovery kit assay; assay type: biochemical; settings: 0.0001%, 0.001% and 0.01% HEI, FIG. 9
T2 construct: purchased Enzo Life Sciences Inc
Protocol: An MMP9 assay was carried out using a Matrix Metalloproteinase-9 (MMP-9) colorimetric drug discovery kit (Enzo Life Sciences Inc.). Specifically, HEI was added to a recombinant human MMP-9 enzyme solution to 0.0001%, 0.001% and 0.01% concentration. After mixing with chromogenic MMP-9 substrate, the absorbance at 412 nm was measured every other minute. The MMP-9 inhibition rate (%) for HEI was calculated from the slope of the absorbance (OD/min).

[6] = system: gene COL5A1 for type V collagen; experiment: COL5A1 expression in human fibroblasts after addition of recombinant cytokine; assay type: cell-based; settings: normal human fibroblasts, 24 hours
Protocol: The selected recombinant cytokine proteins were purchased from R&D Co. Normal human fibroblasts from skin harvested from 14-month-old children were cultured for 24 hours in 10% FBS-added DMEM, and the medium in the cultured product was exchanged with another medium added to DMEM medium containing 25% serum for a prescribed concentration of each cytokine, after which culturing was continued for 24 hours. After culturing, the cells were collected and the mRNA was extracted with Trizol. The cDNA was rapidly prepared, and the aforementioned primers were used for real-time PCR to evaluate the gene expression levels of the gene COL5A1 for type V collagen (FIG. 15).

T2 sequence (P14780 107-444 limits assumed): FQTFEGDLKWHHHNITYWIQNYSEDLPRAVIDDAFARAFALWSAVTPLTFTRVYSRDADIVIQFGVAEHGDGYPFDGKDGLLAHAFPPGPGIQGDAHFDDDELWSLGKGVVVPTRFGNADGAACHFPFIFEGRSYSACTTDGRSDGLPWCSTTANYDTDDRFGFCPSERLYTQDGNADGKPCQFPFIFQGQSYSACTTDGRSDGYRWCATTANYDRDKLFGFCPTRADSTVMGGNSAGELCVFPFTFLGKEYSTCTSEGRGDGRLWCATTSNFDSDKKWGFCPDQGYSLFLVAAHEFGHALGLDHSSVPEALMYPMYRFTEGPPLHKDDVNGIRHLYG

Molecule: COc1ccc(S(=O)(=O)N(Cc2cccnc2)[C@@H](C(=O)NO)C(C)C)cc1 [CGS27023A, N-hydroxy-2(R)-[[(4-methoxy-phenyl)sulfonyl](3-picolyl)amino]-3-methylbutanamide hydrochloride]
- laminin 511 in the basal membrane after tissue culture (laminin 511 [1]): augmentation of laminin 511
- amount of PDGF-BB in epidermis protein extract compared to the control (PDGF-BB): increased
- MCSP-positive cells after tissue culture (MCSP-positive cells [2]): maintenance or augmentation of MCSP

Molecule: O=C(Nc1ccc(-c2nc3ccccc3[nH]2)cc1)Nc1ccc(-c2nc3ccccc3[nH]2)cc1 [BIPBIPU, 1-[4-(1H-benzoimidazol-2-yl)phenyl]-3-[4-(1H-benzoimidazol-2-yl)phenyl]urea]
- amount of PDGF-BB in epidermis protein extract compared to the control (PDGF-BB): increased
- MCSP-positive cells after tissue culture (MCSP-positive cells [2]): maintenance or augmentation of MCSP

Molecule: O=C1NCCN1CCO [HEI, 1-(2-Hydroxyethyl)-2-imidazolidinone]
- amount of laminin 511 after culturing (laminin 511 [3]): maintained
- MCSP-positive cell count on the basal membrane after culturing (MCSP-positive cells [4]): maintained
- heparanase inhibiting effect (heparanase): inhibit heparanase activity in a dose-dependent manner
- stratum corneum moisture content (human skin; Corneometer): increased
- TEWL (human skin; Vapometer): decreased
- filaggrin protein expression (filaggrin): tendency for increase
- TEWL [5]: decreased
- stratum corneum moisture content [5]: increased
- MMP9 inhibition (recombinant human MMP-9): inhibit MMP9 activity in a dose-dependent manner

B1: PDGF-BB: recombinant cytokine protein purchased from R&D Co. (protein, UniProt P01127 82-190, looked up)
Platelet-derived growth …: SLGSLTIAEPAMIAECKTRTEVFEISRRLIDRTNANFLVWPPCVEVQRCSGCCNNRNVQCRPTQVQLRPVQVRKIEIVRKKPIFKKATVTLEDHLACKCETVAAARPVT
- type V collagen production (COL5A1 gene expression) [6]: significantly increased
